Experimental data reported in ChEMBL document CHEMBL1157599, “Synthesis, in vitro and in vivo biological evaluation, docking studies, and structure--activity relationship (SAR) discussion of dipeptidyl boronic acid proteasome inhibitors composed of beta-amino acids” (J Med Chem, 2010).
Each block holds one compound with its values, some of them ahead of it.

How the values were obtained:
[1] = Inhibition of chymotrypsin-like activity of human 20S proteosome assessed as hydrolysis of fluorogenic Suc-Leu-Leu-Val-Tyr-AMC substrate
[2] = Toxicity against zebrafish embryo assessed as morphological changes at 10 umol after 24 hrs; set-up: species or system Danio rerio; conditions: in vivo
[3] = Toxicity against zebrafish embryo assessed as morphological changes at 1 umol after 24 hrs; set-up: species or system Danio rerio; conditions: in vivo
[4] = Cytotoxicity against human BCG823 cells after 72 hrs by MTT assay; assay type: functional, cell-based; conditions: BCG823, 72 h
NCI-H460 = test: Cytotoxicity against human H460 cells after 72 hrs by MTT assay; assay type: functional, cell-based; conditions: NCI-H460, 72 h
BXPC-3 = test: Cytotoxicity against human BxPC3 cells after 72 hrs by MTT assay; assay type: functional, cell-based; conditions: BXPC-3, 72 h
SW480 = test: Cytotoxicity against human SW480 cells after 72 hrs by MTT assay; assay type: functional, cell-based; conditions: SW480, 72 h
A549 = test: Cytotoxicity against human A549 cells after 72 hrs by MTT assay; assay type: functional, cell-based; conditions: A549, 72 h
PC-3 = test: Cytotoxicity against human PC3 cells after 72 hrs by MTT assay; assay type: functional, cell-based; conditions: PC-3, 72 h
SK-OV-3 = test: Cytotoxicity against human SKOV3 cells after 72 hrs by MTT assay; assay type: functional, cell-based; conditions: SK-OV-3, 72 h
HL-60 = test: Cytotoxicity against human HL60 cells after 72 hrs by MTT assay; assay type: functional, cell-based; conditions: HL-60, 72 h
U-266 = test: Cytotoxicity against human U266 cells after 72 hrs by MTT assay; assay type: functional, cell-based; conditions: U-266, 72 h
HepG2 = test: cells; conditions: Homo sapiens, HepG2, 72 h
Description: Cytotoxicity against human HepG2 cells after 72 hrs by MTT assay

[5] = Tmax in Sprague-Dawley rat at 1 mg/kg, iv; assay type: ADME, organism-based; set-up: dose 1 mg/kg, route intravenous; conditions: in vivo
[6] = Cmax in Sprague-Dawley rat at 1 mg/kg, iv; assay type: ADME, organism-based; set-up: dose 1 mg/kg, route intravenous; conditions: in vivo
[7] = Mean residence time in Sprague-Dawley rat at 1 mg/kg, iv; assay type: ADME, organism-based; set-up: dose 1 mg/kg, route intravenous; conditions: in vivo
[8] = AUC (0 to t) in Sprague-Dawley rat at 1 mg/kg, iv; assay type: ADME, organism-based; set-up: dose 1 mg/kg, route intravenous; conditions: plasma
[9] = Terminal half life in Sprague-Dawley rat at 1 mg/kg, iv; assay type: ADME, organism-based; set-up: dose 1 mg/kg, route intravenous; conditions: in vivo, read-out: beta t1/2 (converted)
[10] = Volume of distribution in Sprague-Dawley rat at 1 mg/kg, iv; assay type: ADME, organism-based; set-up: dose 1 mg/kg, route intravenous; conditions: in vivo, read-out: Vz
[11] = Systemic clearance in Sprague-Dawley rat at 1 mg/kg, iv; assay type: ADME, organism-based; set-up: dose 1 mg/kg, route intravenous; conditions: in vivo
Rattus norvegicus [12] = test: Toxicity in Sprague-Dawley rat assessed as toxic reactions at 1 mg/kg, iv; assay type: organism-based; set-up: dose 1 mg/kg, route intravenous; conditions: in vivo
Rattus norvegicus [13] = test: Toxicity in Sprague-Dawley rat assessed as toxic reactions at 1 mg/kg, ig; assay type: organism-based; set-up: dose 1 mg/kg, route intragastric; conditions: in vivo, po
Rattus norvegicus [14] = test: Toxicity in Sprague-Dawley rat assessed as side effects at 2 mg/kg, iv; assay type: organism-based; set-up: dose 2 mg/kg, route intravenous; conditions: in vivo
[15] = Toxicity against zebrafish embryo assessed as embryo death at 10 umol after 24 hrs; set-up: species or system Danio rerio; conditions: in vivo
[16] = Toxicity against zebrafish embryo assessed as cell death in tail at 1 umol after 24 hrs; set-up: species or system Danio rerio
[17] = Toxicity against zebrafish embryo assessed as cell death in embryo at 1 umol after 24 hrs; set-up: species or system Danio rerio
[18] = Tmax in Sprague-Dawley rat at 1 mg/kg, ig; assay type: ADME, organism-based; set-up: dose 1 mg/kg, route intragastric; conditions: in vivo, po
[19] = Cmax in Sprague-Dawley rat at 1 mg/kg, ig; assay type: ADME, organism-based; set-up: dose 1 mg/kg, route intragastric; conditions: in vivo, po
[20] = Mean residence time in Sprague-Dawley rat at 1 mg/kg, ig; assay type: ADME, organism-based; set-up: dose 1 mg/kg, route intragastric; conditions: in vivo, po
[21] = AUC (0 to t) in Sprague-Dawley rat at 1 mg/kg, ig; assay type: ADME, organism-based; set-up: dose 1 mg/kg, route intragastric; conditions: plasma, po
[22] = Terminal half life in Sprague-Dawley rat at 1 mg/kg, ig; assay type: ADME, organism-based; set-up: dose 1 mg/kg, route intragastric; conditions: in vivo, po, read-out: beta t1/2 (converted)
Rattus norvegicus [23] = test: Volume of distribution in Sprague-Dawley rat at 1 mg/kg, ig; assay type: ADME, organism-based; set-up: dose 1 mg/kg, route intragastric; conditions: in vivo, po
[24] = Systemic clearance in Sprague-Dawley rat at 1 mg/kg, ig; assay type: ADME, organism-based; set-up: dose 1 mg/kg, route intragastric; conditions: in vivo, po
[25] = Oral bioavailability in Sprague-Dawley rat; assay type: ADME, organism-based; conditions: in vivo
Rattus norvegicus [26] = test: Toxicity in Sprague-Dawley rat assessed as mortality at 1 mg/kg, iv after 10 hrs; assay type: organism-based; set-up: dose 1 mg/kg, route intravenous; conditions: in vivo
Rattus norvegicus [27] = test: Toxicity in Sprague-Dawley rat assessed as mortality at 1 mg/kg, ig after 10 hrs; assay type: organism-based; set-up: dose 1 mg/kg, route intragastric; conditions: in vivo, po

SMILES: Cc1ccc(C[C@H](NC(=O)CC(NC(=O)c2cnccn2)c2ccccc2)B(O)O)cc1 (stereo not given in full)
- IC50 [1]: 0.497 µM

SMILES: CC(C)C[C@H](NC(=O)CC(NC(=O)c1cnccn1)c1ccccc1)B(O)O (stereo not given in full)
- IC50 [1]: 0.136 µM

SMILES: CC(C)C[C@H](NC(=O)CC(NC(=O)c1ccccc1)c1ccccc1)B(O)O (stereo not given in full)
- IC50 [1]: 0.04 µM

SMILES: COc1ccc(C(CC(=O)N[C@@H](CC(C)C)B(O)O)NC(=O)c2cccc3c2CCCC3)cc1 (stereo not given in full)
- IC50 [1]: 0.161 µM

SMILES: COc1ccc(C(CC(=O)N[C@@H](CC(C)C)B(O)O)NC(=O)c2cnccn2)cc1 (stereo not given in full)
- IC50 [1]: 0.134 µM

SMILES: CC(C)C[C@H](NC(=O)CC(NC(=O)c1cnccn1)c1ccc(Cl)cc1)B(O)O (stereo not given in full)
- IC50 [1]: 0.121 µM

SMILES: O=C(CC(NC(=O)c1cnccn1)c1ccccc1)N[C@@H](Cc1ccccc1)B(O)O (stereo not given in full)
- IC50 [1]: 0.664 µM

SMILES: CC(C)C[C@H](NC(=O)[C@H](Cc1ccccc1)NC(=O)c1cnccn1)B(O)O [BORTEZOMIB]
- Activity [15]: Toxic
- Activity [16]: 28.5%
- Activity [17]: 52.4%
- Tmax [5]: 1.8 min
- Cmax [6]: 1080 ng/mL
- MRT [7]: 1.4 h
- AUC(0-t) [8]: 654 ng·h/mL
- half-life [9]: 2 h
- Vd [10]: 3.74 L/kg
- clearance [11]: 23.9 mL/min/kg
- Tmax [18]: 0.23 h
- Cmax [19]: 161 ng/mL
- MRT [20]: 7.69 h
- AUC(0-t) [21]: 303 ng·h/mL
- half-life [22]: 7.47 h
- Vz (Rattus norvegicus [23]): 29.791 L/kg
- CL/F [24]: 44.7 mL/min/kg
- bioavailability [25]: 46%
- Activity (Rattus norvegicus [26]): Toxic
- Activity (Rattus norvegicus [27]): Toxic
- IC50 [1]: 0.00248 µM
- IC50 [4]: 3.29 µM
- IC50 (NCI-H460): 0.78 µM
- IC50 (BXPC-3): 0.0162 µM
- IC50 (SW480): 0.0061 µM
- IC50 (A549): 0.0067 µM
- IC50 (PC-3): 0.007 µM
- IC50 (SK-OV-3): 0.151 µM
- IC50 (HL-60): 0.0071 µM
- IC50 (U-266): 0.0088 µM
- IC50 (HepG2): 0.0075 µM

Continued, in another order:

- IC50 [1]: 0.0698 µM
SMILES: Cc1ccc(C(CC(=O)N[C@@H](CC(C)C)B(O)O)NC(=O)c2cnccn2)cc1 (stereo not given in full)

- IC50 [1]: 0.35 µM
- IC50 (HepG2): 5.13 µM
SMILES: COc1ccc([C@H](CC(=O)N[C@@H](CC(C)C)B(O)O)NC(=O)c2ccccc2)cc1
- Activity [2]: Non-toxic
- Activity [3]: Non-toxic
- IC50 [4]: 76.9 µM
- IC50 (NCI-H460): 25.2 µM
- IC50 (BXPC-3): 2.82 µM
- IC50 (SW480): 1.72 µM
- IC50 (A549): 3.68 µM
- IC50 (PC-3): 1.11 µM
- IC50 (SK-OV-3): 14.5 µM
- IC50 (HL-60): 0.7 µM
- IC50 (U-266): 1.28 µM

- IC50 [1]: 0.18 µM
SMILES: CC(C)C[C@H](NC(=O)CC(NC(=O)c1cccnc1)c1ccc(Cl)cc1)B(O)O (stereo not given in full)

- IC50 [1]: 0.165 µM
SMILES: Cc1ccc(C(CC(=O)N[C@@H](CC(C)C)B(O)O)NC(=O)c2cccnc2)cc1 (stereo not given in full)

- IC50 [1]: 0.014 µM
SMILES: Cc1ccc(C(CC(=O)N[C@@H](CC(C)C)B(O)O)NC(=O)c2ccccc2)cc1 (stereo not given in full)

- IC50 [1]: 0.0125 µM
- IC50 (HepG2): 5.59 µM
SMILES: COc1ccc(C(CC(=O)N[C@@H](CC(C)C)B(O)O)NC(=O)c2ccccc2)cc1 (stereo not given in full)
- IC50 [4]: 30.9 µM
- IC50 (NCI-H460): 36 µM
- IC50 (BXPC-3): 1.5 µM
- IC50 (SW480): 1.08 µM
- IC50 (A549): 3.45 µM
- IC50 (PC-3): 0.83 µM
- IC50 (SK-OV-3): 8.43 µM
- IC50 (HL-60): 1.02 µM
- IC50 (U-266): 2.65 µM

- IC50 [1]: 0.382 µM
SMILES: CC(C)C[C@H](NC(=O)CC(NC(=O)c1cccnc1)c1ccccc1)B(O)O (stereo not given in full)

- IC50 [1]: 0.03 µM
SMILES: CC(C)C[C@H](NC(=O)CC(NC(=O)c1ccccc1)c1ccc(Cl)cc1)B(O)O (stereo not given in full)

- Tmax [5]: 1.8 min
- Cmax [6]: 2930 ng/mL
- MRT [7]: 2.8 h
- AUC(0-t) [8]: 933 ng·h/mL
- half-life [9]: 5.3 h
- Vd [10]: 8.45 L/kg
- clearance [11]: 18.8 mL/min/kg
- IC50 [1]: 0.0096 µM
- IC50 (HepG2): 1.88 µM
SMILES: COc1ccc([C@@H](CC(=O)N[C@@H](CC(C)C)B(O)O)NC(=O)c2ccccc2)cc1
- Activity (Rattus norvegicus [12]): Non-toxic
- Activity (Rattus norvegicus [13]): Non-toxic
- Activity (Rattus norvegicus [14]): Non-toxic
- IC50 [4]: 74.4 µM
- IC50 (NCI-H460): 14.6 µM
- IC50 (BXPC-3): 0.38 µM
- IC50 (SW480): 0.41 µM
- IC50 (A549): 0.83 µM
- IC50 (PC-3): 0.23 µM
- IC50 (SK-OV-3): 3.49 µM
- IC50 (HL-60): 0.14 µM
- IC50 (U-266): 0.35 µM

- IC50 [1]: 0.035 µM
SMILES: COc1ccc(C(CC(=O)N[C@@H](CC(C)C)B(O)O)NC(=O)c2cccnc2)cc1 (stereo not given in full)
